In ChEMBL document CHEMBL1201862, “PubChem BioAssay data set” (2004):
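All cell lines were grown in 96-well plates and treated with compound for 48 hours. At the GI50, growth is halved.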 Calls of active or inactive are those of the source. No stated cut-off is given here; in the data, active = GI50 up to about 1.1 µM and inactive = higher.

Legend:
Assay in all cases: NCI-60 cell line screen, 48 h
Hs-578T = tested on: Hs-578T
HCT-15 = tested on: HCT-15
COLO 205 = tested on: COLO 205
HL-60 = tested on: HL-60
ACHN = tested on: ACHN
SW-620 = tested on: SW-620
SK-OV-3 = tested on: SK-OV-3
UACC-257 = tested on: UACC-257
K562 = tested on: K562
KM12 = tested on: KM12
UO-31 = tested on: UO-31
SF-268 = tested on: SF-268
U-251 = tested on: U-251
NCI-H460 = tested on: NCI-H460
A498 = tested on: A498
MDA-MB-231 = tested on: MDA-MB-231
SF-295 = tested on: SF-295
SN12C = tested on: SN12C
UACC-62 = tested on: UACC-62
OVCAR-8 = tested on: OVCAR-8

Structure (SMILES) | GI50 (Hs-578T) | GI50 (HCT-15) [µM] | GI50 (COLO 205) | GI50 (HL-60) | GI50 (ACHN) | GI50 (SW-620) | GI50 (SK-OV-3) | GI50 (UACC-257) | GI50 (K562) | GI50 (KM12) | GI50 (UO-31) | GI50 (SF-268) | GI50 (U-251) | GI50 (NCI-H460) | GI50 (A498) | GI50 (MDA-MB-231) | GI50 (SF-295) | GI50 (SN12C) | GI50 (UACC-62) | GI50 (OVCAR-8)
C=C1C(=O)O[C@H]2C(=O)[C@H](C)CCC/C(C)=C/CC[C@@]3(C)O[C@@H]3C[C@@H]12 | 6.34 µM (inactive) | 1.56 | 1.58 µM (inactive) | 2.72 µM (inactive) | 1.34 µM (inactive) | 1.56 µM (inactive) | 16.4 µM (inactive) | 2.99 µM (inactive) | 2.07 µM (inactive) | 4.3 µM (inactive) | 1.62 µM (inactive) | 4.54 µM (inactive) | 2.67 µM (inactive) | 15.4 µM (inactive) | 18.4 µM (inactive) | 10.7 µM (inactive) | 14 µM (inactive) | 5.53 µM (inactive) | 5.06 µM (inactive) | 1.69 µM (inactive)
Nc1cccc2nsnc12 | > 100 µM (inactive) | > 76.7 | 29.3 µM (inactive) | 3.31 µM (inactive) | > 95.7 µM (inactive) | > 100 µM (inactive) | > 100 µM (inactive) | > 100 µM (inactive) | 16.7 µM (inactive) | 20.7 µM (inactive) | > 40.5 µM (inactive) | > 86.3 µM (inactive) | > 100 µM (inactive) | > 84.1 µM (inactive) | > 100 µM (inactive) | > 100 µM (inactive) | > 88.7 µM (inactive) | > 100 µM (inactive) | 48.6 µM (inactive) | > 100 µM (inactive)
Nc1nc(O)c2[nH]nnc2n1 [8-AZAGUANINE] | 0.906 µM (active) | 24 | 13.3 µM (inactive) | 0.326 µM (active) | 16.3 µM (inactive) | 0.306 µM (active) | 1.04 µM (active) | 0.735 µM (active) | 0.268 µM (active) | 34.1 µM (inactive) | 0.366 µM (active) | 0.406 µM (active) | 1.74 µM (inactive) | 11.4 µM (inactive) | 11.6 µM (inactive) | 5.82 µM (inactive) | 3.11 µM (inactive) | 0.334 µM (active) | 0.372 µM (active) | 0.551 µM (active)
COc1ccc(/C=C/C(=O)c2cc(C(C)(C)C)c(O)c(C(C)(C)C)c2)cc1OC | 17.8 µM (inactive) | 5.68 | 5.74 µM (inactive) | 2.84 µM (inactive) | 14.6 µM (inactive) | 4.32 µM (inactive) | 18.7 µM (inactive) | 5.12 µM (inactive) | 3.12 µM (inactive) | 4.36 µM (inactive) | 5.16 µM (inactive) | 17.9 µM (inactive) | 5.79 µM (inactive) | 5.52 µM (inactive) | 15 µM (inactive) | 6.4 µM (inactive) | 6.52 µM (inactive) | 8.15 µM (inactive) | 10 µM (inactive) | 10.5 µM (inactive)
O=C(Nc1nnc(-c2ccccc2)o1)C(SC(=S)N1CCCCC1)c1ccccc1 (stereo not drawn) | 59.8 µM (inactive) | 5.02 | 31 µM (inactive) | 3.11 µM (inactive) | 15.1 µM (inactive) | 31.8 µM (inactive) | 28.4 µM (inactive) | 32.4 µM (inactive) | 9.55 µM (inactive) | 22.9 µM (inactive) | 8.79 µM (inactive) | – | 14.4 µM (inactive) | 7.66 µM (inactive) | 27.3 µM (inactive) | 38.5 µM (inactive) | 14.1 µM (inactive) | 10.9 µM (inactive) | – | 26.5 µM (inactive)
CCOC(=O)c1csc(C(CSCc2ccc(OC)cc2)N2C(=O)c3ccccc3C2=O)n1 (stereo not drawn) | > 100 µM (inactive) | 62.7 | > 100 µM (inactive) | 33.7 µM (inactive) | > 100 µM (inactive) | 50.2 µM (inactive) | > 100 µM (inactive) | > 100 µM (inactive) | 33.9 µM (inactive) | > 100 µM (inactive) | > 100 µM (inactive) | > 100 µM (inactive) | > 100 µM (inactive) | > 100 µM (inactive) | > 100 µM (inactive) | > 100 µM (inactive) | > 100 µM (inactive) | > 100 µM (inactive) | 63.5 µM (inactive) | > 100 µM (inactive)
CNNC1=NS(=O)(=O)c2cc(C#N)c(Cl)cc2S1 | > 10 µM (inactive) | > 10 | > 10 µM (inactive) | > 10 µM (inactive) | > 10 µM (inactive) | > 10 µM (inactive) | > 10 µM (inactive) | > 10 µM (inactive) | > 10 µM (inactive) | > 10 µM (inactive) | 1.68 µM (inactive) | > 10 µM (inactive) | > 10 µM (inactive) | > 10 µM (inactive) | > 10 µM (inactive) | > 10 µM (inactive) | > 10 µM (inactive) | > 10 µM (inactive) | > 10 µM (inactive) | > 10 µM (inactive)
c1ccc(CSCCc2ccncc2)cc1 | > 100 µM (inactive) | > 100 | > 100 µM (inactive) | 50.8 µM (inactive) | > 100 µM (inactive) | > 100 µM (inactive) | > 100 µM (inactive) | 53 µM (inactive) | > 100 µM (inactive) | > 100 µM (inactive) | > 100 µM (inactive) | > 100 µM (inactive) | > 100 µM (inactive) | > 100 µM (inactive) | > 100 µM (inactive) | 15.8 µM (inactive) | > 100 µM (inactive) | > 100 µM (inactive) | > 100 µM (inactive) | > 100 µM (inactive)
CC[N+]1(C)CCC(O)(c2ccc(C)cc2)C(C(=O)c2ccc(C)cc2)C1 (stereo not drawn) | > 100 µM (inactive) | 21.7 | 25.5 µM (inactive) | 56.8 µM (inactive) | 23.3 µM (inactive) | 20.6 µM (inactive) | > 100 µM (inactive) | 62.5 µM (inactive) | 19.6 µM (inactive) | > 100 µM (inactive) | > 100 µM (inactive) | 34.8 µM (inactive) | > 100 µM (inactive) | > 100 µM (inactive) | > 100 µM (inactive) | 26.7 µM (inactive) | 37.4 µM (inactive) | > 100 µM (inactive) | > 100 µM (inactive) | 34.2 µM (inactive)
Cc1ccc(S(=O)(=O)Nc2cc(O)nc3c2CCC3)cc1 | > 100 µM (inactive) | > 100 | > 100 µM (inactive) | 34 µM (inactive) | > 100 µM (inactive) | > 100 µM (inactive) | > 100 µM (inactive) | > 100 µM (inactive) | > 100 µM (inactive) | > 100 µM (inactive) | > 100 µM (inactive) | > 100 µM (inactive) | > 100 µM (inactive) | > 100 µM (inactive) | > 100 µM (inactive) | > 100 µM (inactive) | > 100 µM (inactive) | > 100 µM (inactive) | > 100 µM (inactive) | > 100 µM (inactive)
COc1cccc(/C=C\c2ccc(O)cc2)c1 | 19.7 µM (inactive) | 23.7 | 48.1 µM (inactive) | 0.151 µM (active) | 3.64 µM (inactive) | 15.2 µM (inactive) | 36.5 µM (inactive) | 26.7 µM (inactive) | 8.77 µM (inactive) | 1.4 µM (inactive) | 5.4 µM (inactive) | 28.2 µM (inactive) | 11.2 µM (inactive) | 4.1 µM (inactive) | 28.3 µM (inactive) | 30.1 µM (inactive) | 28.6 µM (inactive) | 22.9 µM (inactive) | 10.2 µM (inactive) | 12.3 µM (inactive)
C#CC1(OC(C)=O)CCC2C3CC=C4C=C(OC(C)=O)CCC4(C)C3CCC21C (stereo not drawn) | 40.4 µM (inactive) | 23.3 | 16.2 µM (inactive) | 28.6 µM (inactive) | 26.7 µM (inactive) | 23.4 µM (inactive) | 36.2 µM (inactive) | 17.4 µM (inactive) | 23.9 µM (inactive) | 20.4 µM (inactive) | 23.1 µM (inactive) | 23.8 µM (inactive) | 19.5 µM (inactive) | 27 µM (inactive) | 46.6 µM (inactive) | 24.2 µM (inactive) | 25.2 µM (inactive) | 19.5 µM (inactive) | 18.3 µM (inactive) | 19.1 µM (inactive)
O=C(N/N=C\c1c(O)ccc2ccccc12)c1ccncc1 | > 15.3 µM (inactive) | 0.0991 | 0.82 µM (active) | 0.518 µM (active) | 0.206 µM (active) | 0.769 µM (active) | 0.693 µM (active) | 1.22 µM (inactive) | 0.0553 µM (active) | 2.7 µM (inactive) | 0.356 µM (active) | 0.341 µM (active) | 0.29 µM (active) | – | 2.21 µM (inactive) | 0.254 µM (active) | > 5.98 µM (inactive) | 0.231 µM (active) | 0.467 µM (active) | 0.574 µM (active)
C=C(Cl)C(C)(Cl)CCC(Cl)C(C)(C)Cl (stereo not drawn) | 27 µM (inactive) | – | 44.8 µM (inactive) | 36.2 µM (inactive) | > 100 µM (inactive) | 51.6 µM (inactive) | > 100 µM (inactive) | 29.4 µM (inactive) | 33.7 µM (inactive) | 87.9 µM (inactive) | 37.6 µM (inactive) | 89.9 µM (inactive) | 46.9 µM (inactive) | 78.9 µM (inactive) | > 100 µM (inactive) | 32.7 µM (inactive) | > 100 µM (inactive) | 51.6 µM (inactive) | – | –
COc1ccc(S(=O)(=O)N2C(=O)CCC2C(=O)NN)cc1 (stereo not drawn) | 61.8 µM (inactive) | > 100 | > 100 µM (inactive) | > 100 µM (inactive) | > 100 µM (inactive) | > 100 µM (inactive) | > 100 µM (inactive) | > 100 µM (inactive) | > 100 µM (inactive) | > 100 µM (inactive) | > 100 µM (inactive) | – | > 100 µM (inactive) | > 100 µM (inactive) | > 100 µM (inactive) | > 100 µM (inactive) | > 100 µM (inactive) | > 100 µM (inactive) | > 100 µM (inactive) | > 100 µM (inactive)
